Laboratory results taken from ChEMBL document CHEMBL4765279, “Discovery of a novel series of imidazo[1',2':1,6]pyrido[2,3-d]pyrimidin derivatives as potent cyclin-dependent kinase 4/6 inhibitors” (Eur J Med Chem, 2020).
pIC50: −log10 of the molar value. Activity calls are given as the source filed them. The rule behind the calls is not given here.

Tests used:
[1] = Cmax in BALB/c mouse at 10 mg/kg, po by LC-MS/MS analysis; format: ADME, organism-based; design: route oral, dose 10 mg/kg; details: in vivo
CYP3A4 = CYP3A4 (Homo sapiens, UniProt P08684); assay: Inhibition of CYP3A4 in human liver microsomes at 10 uM measured after 20 mins in presence of NADPH by LC-MS/MS analysis relative to control; format: ADME
CYP2C19 = CYP2C19 (Homo sapiens, UniProt P33261); assay: Inhibition of CYP2C19 in human liver microsomes at 10 uM measured after 20 mins in presence of NADPH by LC-MS/MS analysis relative to control; format: ADME
U-87 MG [2] = assay: Antitumor activity against human U-87 MG cells xenografted in BALB/c mouse assessed as tumor growth at 10 mg/kg, po qd for 16 days relative to control; format: functional, U-87MG ATCC; details: time 16 day
Cytochrome P450 3A4 = Cytochrome P450 3A4 (Homo sapiens, UniProt P08684); assay: Time-dependent inhibition of CYP3A4 in human liver microsomes at 10 uM in presence of NADPH by LC-MS/MS analysis; format: ADME
[3] = Intrinsic clearance in rat liver microsomes at 1 uM preincubated for 10 mins followed by NADPH addition and measured after 1 hr by LC-MS/MS analysis; format: ADME, Microsome; details: time 70 min, read-out: CLH
[4] = molecular target: Cyclin-dependent kinase 1/cyclin B1 (Homo sapiens, UniProt P06493)
Description: Inhibition of CDK1/cyclin B (unknown origin)

Cytochrome P450 1A2 = molecular target: T1, Cytochrome P450 1A2 (Homo sapiens, UniProt P05177); assay: Time-dependent inhibition of CYP1A2 in human liver microsomes at 10 uM in presence of NADPH by LC-MS/MS analysis; format: ADME
T1 sequence (P05177 whole entry): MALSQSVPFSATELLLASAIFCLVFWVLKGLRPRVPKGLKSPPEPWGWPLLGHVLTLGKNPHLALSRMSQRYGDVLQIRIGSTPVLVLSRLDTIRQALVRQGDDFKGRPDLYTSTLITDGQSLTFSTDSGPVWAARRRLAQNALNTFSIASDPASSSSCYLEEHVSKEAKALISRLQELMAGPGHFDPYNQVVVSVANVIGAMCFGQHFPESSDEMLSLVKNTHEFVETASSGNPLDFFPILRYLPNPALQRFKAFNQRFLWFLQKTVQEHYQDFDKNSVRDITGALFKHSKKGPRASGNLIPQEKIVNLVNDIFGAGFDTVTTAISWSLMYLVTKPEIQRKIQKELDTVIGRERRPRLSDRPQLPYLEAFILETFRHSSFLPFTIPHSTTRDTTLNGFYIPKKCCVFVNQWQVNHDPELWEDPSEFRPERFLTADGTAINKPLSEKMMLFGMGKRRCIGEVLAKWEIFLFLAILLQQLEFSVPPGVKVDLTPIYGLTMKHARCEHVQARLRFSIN

COLO 205 [5] = assay: Antitumor activity against human COLO 205 cells xenografted in BALB/c mouse assessed as reduction in tumor volume at 30 mg/kg, po q3d for 11 days measured post last dose by caliper method; format: functional, organism-based; details: time 11.0 day
COLO 205 [6] = assay: Antitumor activity against human COLO 205 cells xenografted in BALB/c mouse assessed as reduction in tumor volume at 3 mg/kg, po qd for 11 days measured post last dose by caliper method; format: functional, organism-based; details: time 11.0 day
Cytochrome P450 2D6 = Cytochrome P450 2D6 (Homo sapiens, UniProt P10635); assay: Time-dependent inhibition of CYP2D6 in human liver microsomes at 10 uM in presence of NADPH by LC-MS/MS analysis; format: ADME
CYP2C9 = CYP2C9 (Homo sapiens, UniProt P11712); assay: Inhibition of CYP2C9 in human liver microsomes at 10 uM measured after 20 mins in presence of NADPH by LC-MS/MS analysis relative to control; format: ADME
U-87 MG [7] = assay: Antiproliferative activity against human U-87 MG cells assessed as cell growth inhibition measured after 4 to 6 days by celltiter-glo luminescent cell viability assay; format: functional, cell-based, U-87MG ATCC
Cytochrome P450 2C9 = Cytochrome P450 2C9 (Homo sapiens, UniProt P11712); assay: Time-dependent inhibition of CYP2C9 in human liver microsomes at 10 uM in presence of NADPH by LC-MS/MS analysis; format: ADME
CYP2D6 = CYP2D6 (Homo sapiens, UniProt P10635); assay: Inhibition of CYP2D6 in human liver microsomes at 10 uM measured after 20 mins in presence of NADPH by LC-MS/MS analysis relative to control; format: ADME
COLO 205 [8] = assay: Cell cycle arrest in human COLO 205 cells assessed as accumulation at G0/G1 phase at 200 nM measured after 24 hrs by propidium iodide staining based flow cytometry relative to control; format: functional
Cytochrome P450 2C19 = Cytochrome P450 2C19 (Homo sapiens, UniProt P33261); assay: Time-dependent inhibition of CYP2C19 in human liver microsomes at 10 uM in presence of NADPH by LC-MS/MS analysis; format: ADME
COLO 205 [9] = assay: Antitumor activity against human COLO 205 cells xenografted in BALB/c mouse assessed as tumor growth at 3 mg/kg, po q3d for 11 days measured post last dose relative to control; format: functional; details: time 11 day
U-87 MG [10] = assay: Antitumor activity against human U-87 MG cells xenografted in BALB/c mouse assessed as tumor growth inhibition at 10 mg/kg, po qd for 16 days relative to control; format: functional, U-87MG ATCC; details: 384 h, time 16 day, read-out: TGI
[11] = Volume of distribution at steady state in BALB/c mouse at 3 mg/kg, iv by LC-MS/MS analysis; format: ADME, organism-based; details: in vivo, read-out: Vdss
[12] = Half life in Sprague-Dawley rat at 3 mg/kg, iv by LC-MS/MS analysis; format: ADME, organism-based; details: in vivo
[13] = AUC (0 to t) in Sprague-Dawley rat at 3 mg/kg, iv by LC-MS/MS analysis; format: ADME, organism-based; design: dose 3 mg/kg; details: in vivo
[14] = Oral bioavailability in BALB/c mouse at 10 mg/kg by LC-MS/MS analysis; format: ADME, organism-based; details: in vivo
CDK6/Cyclin D3 = CDK6/Cyclin D3 (Homo sapiens, UniProt Q00534); assay: Inhibition of human full-length N-terminal GST tagged CDK6 (1 to 326 residues)/GST-tagged cyclinD3 (1 to 292 residues) expressed in baculovirus expression system using ULight-elF4E-binding protein 1 peptide as substrate measured after 30 mins by LANCE assay
COLO 205 [15] = assay: Antitumor activity against human COLO 205 cells xenografted in BALB/c mouse assessed as tumor growth inhibition at 3 mg/kg, po qd for 11 days relative to control; format: functional; details: COLO 205, po, time 11 day, read-out: TGI
[16] = molecular target: Cyclin-dependent kinase 7/ cyclin H (Homo sapiens, UniProt P50613); assay: Inhibition of CDK7/cyclin H (unknown origin); format: protein-complex assay
[17] = Half life in Sprague-Dawley rat at 6 mg/kg, po by LC-MS/MS analysis; format: ADME, organism-based; details: in vivo
COLO 205 [18] = assay: Antitumor activity against human COLO 205 cells xenografted in po dosed BALB/c mouse assessed as tumor growth inhibition administered once daily or every three days for 11 days; format: functional, organism-based; details: time 11.0 day
CDK2/Cyclin A2 = CDK2/Cyclin A2 (Homo sapiens, UniProt P24941)
Description: Inhibition of CDK2/cyclin A2 (unknown origin)

Sequence of Cytochrome P450 2D6 (P10635 whole entry): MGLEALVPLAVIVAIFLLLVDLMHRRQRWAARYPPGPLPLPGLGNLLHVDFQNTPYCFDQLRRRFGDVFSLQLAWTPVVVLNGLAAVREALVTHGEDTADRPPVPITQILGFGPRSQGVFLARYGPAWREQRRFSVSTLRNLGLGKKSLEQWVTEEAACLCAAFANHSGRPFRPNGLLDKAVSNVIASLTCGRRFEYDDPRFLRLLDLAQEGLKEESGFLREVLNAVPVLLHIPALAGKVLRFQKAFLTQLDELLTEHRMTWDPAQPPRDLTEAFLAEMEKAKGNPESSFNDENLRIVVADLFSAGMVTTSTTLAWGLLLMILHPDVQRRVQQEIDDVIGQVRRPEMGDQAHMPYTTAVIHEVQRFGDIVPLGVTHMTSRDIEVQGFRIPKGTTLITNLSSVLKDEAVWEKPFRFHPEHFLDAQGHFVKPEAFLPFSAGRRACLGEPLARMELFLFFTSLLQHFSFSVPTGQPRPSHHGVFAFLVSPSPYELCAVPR
Sequence of CYP2D6 (P10635 whole entry): as above
Sequence of Cyclin-dependent kinase 1/cyclin B1 (P06493 whole entry): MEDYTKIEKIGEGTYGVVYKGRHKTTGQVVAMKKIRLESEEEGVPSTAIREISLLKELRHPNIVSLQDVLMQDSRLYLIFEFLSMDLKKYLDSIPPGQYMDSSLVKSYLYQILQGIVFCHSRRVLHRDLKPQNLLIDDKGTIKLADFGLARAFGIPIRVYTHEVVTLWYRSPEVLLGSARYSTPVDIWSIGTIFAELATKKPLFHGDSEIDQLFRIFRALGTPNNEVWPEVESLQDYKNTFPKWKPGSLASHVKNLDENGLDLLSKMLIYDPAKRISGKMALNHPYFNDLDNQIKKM
Sequence of Cyclin-dependent kinase 1/cyclin B1 (P14635 whole entry, further chain): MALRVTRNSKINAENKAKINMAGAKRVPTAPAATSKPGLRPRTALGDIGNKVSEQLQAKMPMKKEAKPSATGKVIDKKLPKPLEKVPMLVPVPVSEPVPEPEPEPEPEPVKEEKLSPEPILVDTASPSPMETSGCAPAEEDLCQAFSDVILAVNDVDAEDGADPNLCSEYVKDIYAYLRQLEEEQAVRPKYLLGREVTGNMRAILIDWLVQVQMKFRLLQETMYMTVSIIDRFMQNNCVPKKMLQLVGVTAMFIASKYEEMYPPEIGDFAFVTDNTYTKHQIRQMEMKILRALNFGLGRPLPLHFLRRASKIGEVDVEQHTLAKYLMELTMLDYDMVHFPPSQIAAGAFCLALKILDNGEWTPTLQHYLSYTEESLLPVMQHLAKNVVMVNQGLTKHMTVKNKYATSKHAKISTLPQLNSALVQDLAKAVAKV
Sequence of CYP2C19 (P33261 whole entry): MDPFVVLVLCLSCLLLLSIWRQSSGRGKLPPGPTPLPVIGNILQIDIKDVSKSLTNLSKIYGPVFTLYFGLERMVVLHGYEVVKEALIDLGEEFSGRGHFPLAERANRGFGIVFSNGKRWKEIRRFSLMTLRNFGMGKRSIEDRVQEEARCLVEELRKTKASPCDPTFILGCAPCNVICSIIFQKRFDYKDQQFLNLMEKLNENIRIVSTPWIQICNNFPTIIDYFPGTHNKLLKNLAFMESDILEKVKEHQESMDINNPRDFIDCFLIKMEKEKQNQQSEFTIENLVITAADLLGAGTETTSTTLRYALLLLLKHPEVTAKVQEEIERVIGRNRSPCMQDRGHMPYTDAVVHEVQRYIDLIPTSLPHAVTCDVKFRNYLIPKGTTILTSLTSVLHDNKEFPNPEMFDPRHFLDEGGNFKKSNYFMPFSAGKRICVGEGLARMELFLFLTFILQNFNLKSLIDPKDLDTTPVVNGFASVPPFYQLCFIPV
Sequence of Cytochrome P450 2C19 (P33261 whole entry): as above
Sequence of Cyclin-dependent kinase 7/ cyclin H (P51946 whole entry): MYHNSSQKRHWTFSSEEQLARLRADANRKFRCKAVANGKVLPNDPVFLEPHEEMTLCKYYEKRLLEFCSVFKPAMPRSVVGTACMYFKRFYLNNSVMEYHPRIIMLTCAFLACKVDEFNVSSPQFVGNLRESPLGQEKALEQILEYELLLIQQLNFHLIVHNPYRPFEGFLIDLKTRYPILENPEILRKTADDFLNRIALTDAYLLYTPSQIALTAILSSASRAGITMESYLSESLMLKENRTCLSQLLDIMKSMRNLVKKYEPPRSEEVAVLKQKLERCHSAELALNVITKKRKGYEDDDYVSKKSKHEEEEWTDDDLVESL
Sequence of Cyclin-dependent kinase 7/ cyclin H (P50613 whole entry): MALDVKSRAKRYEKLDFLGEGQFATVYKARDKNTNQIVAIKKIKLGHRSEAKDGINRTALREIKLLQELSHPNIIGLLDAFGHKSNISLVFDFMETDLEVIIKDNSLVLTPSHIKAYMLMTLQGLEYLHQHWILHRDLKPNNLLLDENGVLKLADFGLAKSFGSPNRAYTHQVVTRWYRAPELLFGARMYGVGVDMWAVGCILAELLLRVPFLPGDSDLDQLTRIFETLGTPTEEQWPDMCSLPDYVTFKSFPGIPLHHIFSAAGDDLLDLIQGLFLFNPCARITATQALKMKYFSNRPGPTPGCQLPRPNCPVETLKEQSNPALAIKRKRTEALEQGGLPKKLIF
Sequence of CDK6/Cyclin D3 (Q00534 whole entry, looked up, the tested form may be a part): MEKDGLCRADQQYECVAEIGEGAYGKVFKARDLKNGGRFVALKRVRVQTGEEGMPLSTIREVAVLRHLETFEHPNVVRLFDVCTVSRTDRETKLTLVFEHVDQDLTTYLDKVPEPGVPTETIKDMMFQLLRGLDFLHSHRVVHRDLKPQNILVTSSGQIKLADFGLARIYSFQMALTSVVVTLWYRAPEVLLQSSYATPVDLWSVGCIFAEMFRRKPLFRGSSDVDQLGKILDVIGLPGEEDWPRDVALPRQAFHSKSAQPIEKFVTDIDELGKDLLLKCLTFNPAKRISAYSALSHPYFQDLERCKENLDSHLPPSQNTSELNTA
Sequence of CYP2C9 (P11712 whole entry): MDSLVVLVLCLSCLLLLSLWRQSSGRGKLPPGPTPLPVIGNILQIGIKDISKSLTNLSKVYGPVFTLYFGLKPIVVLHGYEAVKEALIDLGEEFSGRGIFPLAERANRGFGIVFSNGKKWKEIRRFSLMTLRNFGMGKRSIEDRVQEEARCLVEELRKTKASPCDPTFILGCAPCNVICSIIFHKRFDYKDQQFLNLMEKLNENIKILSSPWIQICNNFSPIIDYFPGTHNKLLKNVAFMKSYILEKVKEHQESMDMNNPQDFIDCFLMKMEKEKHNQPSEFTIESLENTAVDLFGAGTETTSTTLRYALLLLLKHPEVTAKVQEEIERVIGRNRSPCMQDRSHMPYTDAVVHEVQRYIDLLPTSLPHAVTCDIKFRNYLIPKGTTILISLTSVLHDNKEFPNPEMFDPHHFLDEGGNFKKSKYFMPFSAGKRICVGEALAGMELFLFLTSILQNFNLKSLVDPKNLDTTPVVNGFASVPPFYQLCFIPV
Sequence of Cytochrome P450 2C9 (P11712 whole entry): as above
Sequence of CYP3A4 (P08684 whole entry): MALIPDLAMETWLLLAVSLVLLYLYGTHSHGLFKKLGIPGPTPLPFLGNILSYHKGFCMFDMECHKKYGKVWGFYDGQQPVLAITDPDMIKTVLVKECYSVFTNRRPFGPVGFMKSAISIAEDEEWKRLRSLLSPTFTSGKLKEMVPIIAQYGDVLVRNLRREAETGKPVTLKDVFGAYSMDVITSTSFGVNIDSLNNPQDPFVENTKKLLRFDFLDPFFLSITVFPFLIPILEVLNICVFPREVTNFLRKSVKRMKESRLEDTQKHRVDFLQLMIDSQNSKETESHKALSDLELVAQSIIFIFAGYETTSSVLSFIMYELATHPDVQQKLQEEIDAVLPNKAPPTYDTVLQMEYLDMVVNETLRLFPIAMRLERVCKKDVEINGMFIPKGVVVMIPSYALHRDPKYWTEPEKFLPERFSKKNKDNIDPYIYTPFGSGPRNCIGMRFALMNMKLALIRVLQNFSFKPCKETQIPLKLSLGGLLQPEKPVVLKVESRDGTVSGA
Sequence of Cytochrome P450 3A4 (P08684 whole entry): as above

CC(=O)c1c(C)c2cnc(Nc3ccc(N4CCNCC4)cc3)nc2n2cc(C(C)C)nc12
Cmax [1]: 90 ng/mL
inhibition at […], 10 µM (CYP3A4): 8%
inhibition at […], 10 µM (CYP2C19): 21%
T/C (U-87 MG [2]): 53%
TDI (Cytochrome P450 3A4): Not Active
microsomal CLint at 1 µM [3]: 54 µL/min/mg
pIC50 [4]: 6.51
TDI (Cytochrome P450 1A2): Not Active
Activity (COLO 205 [5]): Active
Activity (COLO 205 [6]): Active
TDI (Cytochrome P450 2D6): Not Active
inhibition at […], 10 µM (CYP2C9): 11%
pIC50 (U-87 MG [7]): 7.07
TDI (Cytochrome P450 2C9): Not Active
inhibition at […], 10 µM (CYP2D6): 14%
Activity (COLO 205 [8]): 94.2%
TDI (Cytochrome P450 2C19): Not Active
T/C (COLO 205 [9]): 52%
inhibition in vivo at 10 mg/kg (U-87 MG [10]): 54%
Vd [11]: 46.5 L/kg
half-life [12]: 3.25 h
AUCt [13]: 861 ng·h/mL
bioavailability [14]: 20.5%
pIC50 (CDK6/Cyclin D3): 8.70
inhibition in vivo at 3 mg/kg (COLO 205 [15]): 63%
pIC50 [16]: 7.02
half-life [17]: 4.96 h
TGI (COLO 205 [18]): Dose-dependent effect
pIC50 (CDK2/Cyclin A2): 7.72
